From patent US20080009546A1 (Chevron U.S.A. Inc., priority 2005, published 2008)
Like-named read-outs stand apart in the source and are kept apart here.

What was measured:
[1] = biological target: NMDA receptor; assay: [3H]MK-801 binding assay, NMDA receptors in guinea pig brain membranes; conditions: for Relative affinity: compared to that of Memantine
Experimental: Hartley guinea pigs were sacrificed, and their brains were quickly removed and weighed. The brains then were homogenized in 50 mM Tris HCl buffer, pH 7.7, using a Polytron homogenizer. The homogenate was centrifuged at 40,000×g for 15 min, rehomogenized, and centrifuged again. The final pellet was resuspended in Tris-HCl, pH 7.7, at a final concentration of 6.67 mg original wet weight of tissue/ml. […] The samples were then filtered through glass fiber filters on a Tomtec cell harvester. The filters were washed 3 times with 3 ml of cold buffer. Filters were dried overnight and counted next day on a Wallac Betaplate Reader.
The binding experiments were conducted as follows. […] For each compound, graphs were prepared containing individual competition curves obtained for that compound. IC50 values and Hill coefficients were calculated using the program Prism. Ki values were calculated using the Chang Prusoff transformation: Ki=IC50/(1+L/Kd)
where L is radioligand concentration and Kd is the binding affinity of the radioligand, as determined previously by saturation analysis. […] In each experiment, one standard compound was simultaneously run on each 96 well plate.

[2] = system: primary neurons from rat cerebral cortex; assay: NMDA-induced LDH release assay in primary cortical neurons (neuroprotection); type: cell-based; design: Total LDH (Avg): unit not given here; conditions: MDT compound 30 uM, 24 hour incubation
Experimental: The neuroprotective properties of drugs have been studied in vitro, using neurons cultured from cortex, cerebellum or retina. […] Neurotoxicity is determined in this assay by measuring lactate dehydrogenase (LDH), a method which is simple, accurate and reproducible. We conducted pilot studies to test if poly-lysine-coated plates would be suitable as a matrix upon which to plate fetal neurons, compared to astrocyte-coated plates. We also compared the use of growth medium to neurobasal medium supplemented with B27 in the pilot experiments. The concentrations of NMDA (300-500 μM), glycine (10-50 μM), and memantine (10-100 μM) were varied, and optimum concentrations and times determined from these pilot studies were then chosen for the main study. The assay is described below.
Fetal rat neocortical cells were cultured on a mouse astroglial feeder layer. To obtain mouse astroglial cells for the feeder layer, cortices were harvested from 1-day old Swiss Webster mice (Charles River, Hollister, Calif.) according to the procedure described by Rose et al (1993). After dissecting cortices in ice-cold dissecting medium, they were minced and incubated in 0.09% trypsin in media stock for 1 hr, followed by resuspension in growth medium containing 10% equine serum and 10% fetal bovine serum. A single-cell suspension was obtained by triturating through fire-bored glass pipettes, and the resulting cell suspension was plated at a density of 0.5-0.75 hemispheres/24-well plate/9.6 ml, with 0.4 ml/well. Plates were incubated in a humidified incubator at 37° C., 5% CO2. Astroglial cells become confluent in about 2-3 weeks, at which time these cultures are ready to be used as feeder layers upon which neuronal cultures can be plated. Neuronal cells were obtained from gestational Sprague-Dawley rats E16-E18, using a similar dissection procedure. Rat embryos were dissected to obtain cortical tissue, which was plated as a single-cell suspension at a density of 1.4 hemispheres/24-well plate/9.6 ml, with 0.4 ml/well. These cells were plated on the existing astroglial feeder layer, and were incubated at 37° C., 5% CO2. After 5 days in culture, cytosine arabinoside (10 μM) was added to the wells to inhibit glial cell proliferation, and after 24 hours, the medium was replaced with fresh growth medium. Cells were fed with fresh growth medium every 2 days, until the experiments were performed. For coating plates with poly-lysine, we used poly-d-lysine hydrobromide (Sigma Cat # P7280) at a concentration of 0.1 mg/ml to coat each well using a minimum volume of 0.2 ml/well. After coating for 5 minutes, the solution was aspirated and wells were rinsed thoroughly with sterile tissue culture grade water. After drying for 2 hours, plates were ready for use. Neuronal cultures were plated onto poly-lysine-coated plates at the same density as above. For the pilot study, some of the cultures were fed with 1:1 ratio of growth medium: neurobasal medium (GIBCO)+B-27 supplement (2%), while the rest of the cultures were fed with growth medium alone (Losi et al., 2006). For the main study, we used astroglial feeder layers to plate the neuronal cultures, and used a mix (1:1) of growth medium with neurobasal medium+B-27 supplement for feeding the cultures.
After 11-14 days in culture, neuronal cells were confluent and experiments were performed. Cells were washed twice using sterile Locke's buffer (154 mM NaCl, 5.6 mM KCl, 2.3 mM CaCl2, 3.6 mM NaHCO3, 5.5 mM D-glucose, 5 mM HEPES, pH 7.4), and then exposed to the various treatment compounds. […] After 15 minutes, cultures were washed twice and incubated overnight in media stock. After 24 hours, supernatants and lysates were collected to measure LDH activity. LDH activity was measured by the reduction of NAD, which was utilized in the stoichiometric conversion of a tetrazolium dye using a kit (Sigma TOX-7). Supernatants were removed from the wells and centrifuged before LDH measurements. The adherent cells were lysed to obtain total LDH. […]

[3] = guinea pig brain membrane preparation (Table 29), read-out: Ki
[4] = Plate #5, astrocyte-coated rat neurons, GM fed
[5] = Plate #4, poly-lysine-coated rat neurons, GM/NB + B-27 fed
[6] = astrocyte-coated rat neurons, GM/NB + B-27 fed

Compound | Ki [1, 3] [µM] | Relative affinity [1] | also measured
O=C(O)C12CC3CC4C1CC1CC2C(C3)C4(C(=O)O)C1 [MDT-39] | > 1000 | – | –
CC12CC3CC4C1CC1(N)CC2C(C3)C4(C)C1 [MDT-23 (prep from Example 5)] | 3 ± 0.9 | 0.243 | –
OC12CC3CC4C5CC(CC41)CC2C5C3 [MDT-10] | > 1000 | – | –
CC(N)C12CC3CC4C5CC(CC41)CC2C5C3 (stereo not drawn) [MDT-57] | 4 ± 0.1 | 0.183 | –
CC12CC3C4CC5CC3C(C1)C(C5)C4C2 [MDT-60] | > 1000 | – | –
NC12CC3CC4C5CC(CC41)CC2C5C3 [MDT #1] | – | – | % (Control Wash = 100) [2, 4]: 99%; Secreted LDH (Avg) [2, 4]: 0.18; Secreted/(total + secreted) (Avg) [2, 4]: 5.81; Total LDH (Avg) [2, 4]: 2.96
CC12CC3C4CC5(C)CC3C(C1)C(C(=O)O)(C5)C4C2 [MDT-52, 4,9-dimethyl-1-diamantanecarboxylic acid] | > 1000 | – | –
O=C(O)C12CC3CC4C5CC(CC41)CC2C5C3 [MDT-38] | > 1000 | – | –
O=NC12CC3C4CC5CC3C(C1)C(C5)C4C2 [MDT-27] | > 1000 | – | –
OC12C3CC4CC5C3CC3C6CC(CC31)CC2(C4)C56 [MDT-40] | > 1000 | – | –
NC12CC3CC4C5CC(CC41)CC2C5C3 [MDT-2] | 6.4 ± 0.13 | 0.114 | –
NC12CC3CC4C5CC(CC41)CC2C5C3 [MDT #2] | – | – | % (Control Wash = 100) [2, 4]: 118%; Secreted LDH (Avg) [2, 4]: 0.23; Secreted/(total + secreted) (Avg) [2, 4]: 6.93; Total LDH (Avg) [2, 4]: 3.09
NC12CC3C4CC5(N)CC3C(C1)C(C5)C4C2 [MDT #5] | – | – | % (Control Wash = 100) [2, 4]: 123%; Secreted LDH (Avg) [2, 4]: 0.25; Secreted/(total + secreted) (Avg) [2, 4]: 7.21; Total LDH (Avg) [2, 4]: 3.27
OC12CC3CC4C1CC1CC4C(O)(C3)C2C1 [MDT #13] | – | – | % (Control Wash = 100) [2, 5]: 139%; Secreted LDH (Avg) [2, 5]: 0.54; Secreted/(total + secreted) (Avg) [2, 5]: 15.25; Total LDH (Avg) [2, 5]: 2.99; % (Control Wash = 100) [2, 6]: 276%; Secreted LDH (Avg) [2, 6]: 0.85; Secreted/(total + secreted) (Avg) [2, 6]: 19.97; Total LDH (Avg) [2, 6]: 3.41

Second part, led by results:

Ki [1, 3] [µM] | Relative affinity [1] | Compound | also measured
3.9 ± 0.2 | 0.187 | mixture of 1-methyl-2-aminodiamantane and 1-methyl-6-aminodiamantane [MDT-31] | –
41 ± 10.7 | 0.018 | CC12CC3CC4C1CC1(N)CC2C(C3)C4(N)C1 [MDT-29] | –
> 1000 | – | CC12CC3(N)CC4C5CC(N)(CC41)CC2C5C3 [MDT-28, 1-methyl-4,9-diaminodiamantane] | –
> 1000 | – | OC12CC3CC4C1CC1C5CC6CC1C2C(C6)(C3)C54 (stereo not drawn) [MDT-41] | –
5.1 ± 0.3 | 0.143 | CC12CC3C4CC5(C)CC3C(C1)C(CN)(C5)C4C2 [MDT-63] | –
> 1000 | – | CC12CC3CC4C1CC1CC2C(O)(C3)C4(C)C1 (stereo not drawn) [MDT-44, 1,6-dimethyl-2-hydroxydiamantane] | –
– | 0.052 | 3-amino-triamantane [MDT-48] | Ki ([1]; [3H]MK-801 (1 nM), guinea pig brain membrane preparation, read-out: Ki (binding affinity)): 14 µM
112 ± 14 | 0.007 | CC12CC3C4CC5(C)CC(C(C1)C3(N)C5)C4(N)C2 [MDT-53, 4,9-dimethyl-1,6-diaminodiamantane] | –
> 1000 | – | mixture of 4-methyl-9-aminodiamantane and 4-aminodiamantane [MDT-34] | –
> 1000 | – | OC12CC3C4CC5CC3C(C1)C(C5)C4C2 [MDT-11] | –
7.5 ± 2.4 | 0.097 | NC12CC3CC4C5CC(CC41)CC2C5C3 [MDT-1] | –
9.8 ± 4.5 | 0.074 | NCC12CC3CC4C5CC(CC41)CC2C5C3 [MDT-56] | –
7.3 ± 1.1 | 0.100 | CC12CC3CC4C1CC1(CN)CC2C(C3)C4(C)C1 [MDT-65] | –
> 1000 | – | CC12CC3CC4C1CC1(C(=O)O)CC2C(C3)C4(C)C1 [MDT-46, 1,6-dimethyl-4-diamantanecarboxylic acid] | –
4.6 ± 0.18 | 0.159 | 1,6-dimethyl-2-aminodiamantane mixture [MDT-6] | –
> 1000 | – | O=C1C2CC3C4CC5CC3C1C(C5)C4C2 [MDT-59] | –
8 ± 0.9 | 0.091 | Cl.NCC12CC3C4CC5CC3C(C1)C(C5)C4C2 [MDT-61] | –
